Consider one compound from patent US6172205A, “Synthetic process toward total synthesis of eleutherobin and its analogues and uses thereof” (The Trustees of Columbia in the City of New York, priority 1998, dated 2001).

Data set [1] concerns P-glycoprotein. Kind of data set: P-glycoprotein substrate behaviour inferred from resistance of SKVBL cells. Format: cell-based, human. The procedure:
Human non-small cell lung carcinoma cells, A549, were maintained in RPMI 1640 containing 10% fetal bovine serum and 1% penicillin-streptomycin (Gibco Laboratories, Grand Island N.Y.) at 37° C. in 7% CO2. The Taxol-resistant cell line A549-T12 was selected for resistance to Taxol and maintained in a final concentration of 12 nM drug (21). Human ovarian carcinoma cells SKOV3 and the MDR variant SKVBL (obtained from Dr. V. Ling) were maintained in α-mem plus ribonucleotides, deoxynucleotides, 15% fetal bovine serum and 1% penicillin-streptomycin (Gibco Laboratories) at 37° C. in 5% CO2. SKVBL cells were maintained in […] vinblastine (Sigma Chemical Co.).
Taxol-resistant and sensitive cell lines were seeded into 12-well plates at a density of 5×10^4 cells per well and allowed a period of 12 h for attachment prior to treatment. Cells were exposed to 10-fold serial dilutions of each compound (10^-10 to 10^-6 M) for 72 h. Cells were then trypsinized and counted (Coulter counter model ZF0031, Coulter Corp., Miami, Fla.). The IC50 was determined by plotting cell number against log of the drug concentration and this was used to determine the concentration of compound resulting in 50% growth inhibition compared to untreated cells. Each cell line was assayed in a minimum of 3 independent experiments with each compound and the results expressed as the mean IC50.
The cytotoxic efficacy of eleutherobin and its derivatives (FIG. 6) was evaluated in two drug sensitive human cancer cell lines and their Taxol-resistant counterparts. The results are summarized in Table I in order of decreasing potency. […] The Taxol-resistant cell line SKVBL overexpresses high levels of P-glycoprotein (22). […] The only difference between the two agents is the enantiomeric relationship in the carbohydrate (2'-acetylarabinose) sector (FIG. 6). […] This cell line expressed high levels of MDR1 resulting in Taxol-resistance equal or greater than 1666 -fold compared to the Taxol-sensitive SKOV3 cell line.

The subject of data set [2] is cellular microtubules, NIH 3T3 cells. The data set can be described thus: Microtubule bundle formation by immunofluorescence. The conditions noted are these: 2 μM, 5.5 h. In kind it is cell-based. The procedure:
FIG. 9 immunofluorescence images NIH3T3 cells labeled with β-tubulin antibody following exposure to different drugs. A)DMSO; B)2 μM Taxol; C)2 μM eleutherobin; D)2 μM neo-eleutherobin; E)2 μM SKBII.294; F)2 μM SKBIII.13.
Illustrates the effects of eleutherobin and its derivatives on the morphology of cellular microtubules following exposure of cells to 2 μM of each compound for 5.5 h at 37° C. […] The number of micotic asters correlated with the extent of microtubule bundling in interphase cells.
NIH 3T3 cells were grown to subconfluency on glass converslips in 35 mm plastic petri dishes. Cells were exposed to 2 μM of Taxol and each of the experimental compounds for 5.5 h at 37° C., rinsed twice in PBS and extracted with 0.5% Triton-X-100 in microtubule stabilizing buffer (PEM) (100 mM PIPES, 2 mM EGTA and 2 mM MgCl2, pH 6.8) for 4 min. Following a wash in PEM, the cells were fixed for 40 min at room temperature in 3% formaldehyde in PEM followed by incubation in 0.1 M glycine in PBS for 10 min and washing (four times) in PEM containing 5 μM EGTA. Following blocking in 20% normal goat serum (NGS) for 30 min at room temperature, cells were incubated for 1 h at 37° C. with a 1:100 dilution of β-tubulin mAb diluted in 10% NGS, washed twice in 1% BSA, once in PBS and three times in 1% BSA. Cells were then incubated in a 1:200 dilution of the secondary fluorophore antibody, IndocarbocyanineCY3 (Jackson Immunoresearch Laboratories Inc., Pa.) in 20% NGS for 20 min at room temperature. Finally cells were washed three times in 1% BSA and the dried slides mounted in 30% glycerol in PBS containing […]-phenylene diamine (1 mg/ml). Fixed slides were examined using a Zeiss Axioskop microscope.

Data set [3] has as its system Human non-small cell lung carcinoma cells, A549. The data set can be described thus: Cytotoxicity by counting cells after 72 h, Taxol-sensitive cells. In kind it is cell-based. The procedure:
Taxol-resistant and sensitive cell lines were seeded into 12-well plates at a density of 5×10^4 cells per well and allowed a period of 12 h for attachment prior to treatment. […] Cells were then trypsinized and counted (Coulter counter model ZF0031, Coulter Corp., Miami, Fla.).

Structures are written as SMILES. “Also recorded” adds a separate entry of the source.

What is called IC50 is the point on the concentration scale where inhibition reaches its midpoint. `CO[C@]12C=C[C@](C)(O1)[C@@H](OC(=O)/C=C/c1cn(C)cn1)C[C@H]1C(C)=CC[C@H](C(C)C)[C@H]1/C=C\2CO[C@@H]1OC[C@@H](O)[C@@H](O)[C@@H]1OC(C)=O` [Eleutherobin]: the “P-glycoprotein substrate (in words)” value in data set [1] is reported as “excellent substrates for P-glycoprotein”. Further, the “microtubule bundle formation (in words)” value in data set [2] (37 °C) was “extensive microtubule bundling”. The “multiple asters in mitotic cells” value in data set [2] (data not shown) is “also seen in eleutherobin and neo-eleutherobin-treated cells”. The IC50 in data set [3] (Homo sapiens, A549, 72 h) was 6 nM. For the same compound, in data set [3] (both sensitive cell lines (A549, SKOV3)), the “fold less potent than Taxol” value came to 3 fold. Also, the “cytotoxicity (in words)” value in data set [3] (sensitive cell lines (A549, SKOV3)) is on record as “IC50 value comparable at Taxol; also recorded: within the nM range”.
